The source of these data is patent US20080038386A1, “Use of a liquid cooling sensate to provide a pungent, warming or tingling sensate composition” (priority 2006, published 2008).

Experiment [1] can be described thus: Sensory panel: pungency enhancement of a hot chile pepper sauce. Type of experiment: in vivo. The source says:
For this type evaluation, a panel consisting of both professional flavorists and other individuals with sensory testing experience was employed. In each tasting session two samples were presented to the panelists in a randomized order to avoid presentation order effect. Panelists were asked to rate the samples as same or different. If different, panelists were asked to rate the “pungent, hotness (warming) or tingling” intensity and to describe the flavor profile as compared to a control sample without the eutectic cooling mixture.
A commercial hot chile pepper sauce derived from Capsicum frutescens var. tabasco (Tabasco® brand) (whose primary pungent principles are the amides capsaicin and dihydrocapsaicin) was diluted to 5% strength in water (the control). […] The control sample was the 5% strength hot chile pepper sauce. […] The degree of hotness (warmth) and pungency profile enhancement was judged to be 25-35%.

The conditions of experiment [2]: 30 ppm in sucrose solution; cited from earlier work.

The structures appear in SMILES notation.

Regarding `CCNC(=O)C1CC(C)CCC1C(C)C` (stereo not drawn) [WS-3, N-Ethyl-p-menthane-3-carboxamide], the “accompanying sensory effect noted by panelists” value in experiment [1] (28 ppm in 5% strength hot chile pepper sauce, especially in the back of the throat) is reported as “unpleasant irritating-scratchy effect”. Also, the “sensory balance accompanying the pungency enhancement” value in experiment [1] (capsaicin containing products (summary statement)) is “unbalanced scratchy-irritating and distorted sensory impression”.

Turning to `C/C=C/C=C\CC/C=C/C(=O)NCC(C)C` [spilanthol, 2E,6Z,8E-decatrienoic acid-N-isobutylamide], in experiment [2], the sensory description entry is on record as “tingling & mouth watering”.
